Assay results reported in patent US9694089B2, “Integrin targeting agents and in-vivo and in-vitro imaging methods using the same” (Visen Medical, Inc., priority 2008, dated 2017).

Experiments:
[1] = tested on: A673 tumors; assay: Effect of Avastin treatment on integrin and cathepsin B signals in A673 tumor-bearing mice; type: in vivo
Method: A673 tumor-bearing mice were randomized once their tumors reached the desired volume and injected i.v. with either E-6 (2 nmoles) or free dye (2 nmoles). For competition studies, mice were injected with the parent compound (100 nmoles) followed 5 minutes later by compound E-6 ([…]). For therapy studies, mice were treated with either 2 mg/kg Avastin (bevacizumab, Genentech, CA) or vehicle (PBS) intraperitoneally (i.p.) 2× week, and injected 7 days after beginning the treatment with 2 nmoles each of compound E-6 and ProSense (ProSense750, VisEn Medical, Bedford, Mass.) in a final volume of 200 μl PBS. ProSense is a protease-activatable fluorescence agent comprising fluorochromes linked to a peptide scaffold. Proteolytic cleavage of the scaffold by cathepsin B activity (and to a lesser extent cathepsins K, L, and S) releases the fluorochromes and results in extensive fluorescence (via dequenching). Imaging was performed 24 hours after administration of the agents using the FMT2500. Differential localization of fluorescent signal with compound E-6 and ProSense can be seen in the same animal. The wavelength of the laser was selected to 680 nm or 750 nm, corresponding to the absorption spectra of the fluorescent agents administered to the animal, enabling simultaneous imaging and quantification of 2 spectrally distinct agents.

[2] = biological target: T1, ανβ3 (Homo sapiens, UniProt P05106+P06756); assay: Inhibition of cell attachment to vitronectin, HEK293-ανβ3 cells; type: cell-based; conditions: for IC50: HEK293-ανβ3 cells, vitronectin-coated wells, 2 hours at 37° C., read-out: IC50 (nM), inhibition of cell attachment to vitronectin, αvβ3
T1 construct: expressed in transfected cells; host or cells: HEK293
Method: (§1) In this experiment, human embryonic kidney (HEK293) cells stably transfected with ανβ3 (HEK293-ανβ3 cells) were released with trypsin-EDTA and washed four times with serum-free MEM. […] Non-attached cells were gently washed away. Similar experiments were carried out with HEK293 cells stably transfected with ανβ5, α11bβ3, or α5β1. The attached cells were quantified by colorimetric detection of hexosaminidase enzymatic activity in a Vmax plate reader (Molecular Devices, Menlo Park, Calif.). The number of attached cells was quantified using a standard curve for each cell line assayed and expressed as a mean value of triplicate samples.

[3] = tested on: human rhabdomyosarcoma A673 tumor cells; assay: Cell binding assay by fluorescence microscopy, A673 tumor cells; type: cell-based
Method: (§2) Cell binding assays were performed using HUVEC (Human umbilical vein endothelial cells) and human rhabdomyosarcoma A673 tumor cells. HUVEC or A673 (50,000 cells) (ATCC, Manassas, Va.) were seeded unto 8-well Lab-Tek chamberslides (Nalge-Nunc International, Naperville, Ill.) and left to adhere overnight at 37° C. in a humidified atmosphere containing 5% CO2. The following day, the medium was changed to fresh complete medium containing compound E-6 or free dye (20 nM), incubated for 30 minutes at 37° C., washed 2×with PBS and fixed with paraformaldehyde for 30 minutes at 4° C. Competition studies were performed by pre-incubating the cells for 5 minutes with parent compound (200 nM) before addition of E-6. The cells on the microscopy slides were then allowed to air dry protected from light. The slides were mounted with ProLong® Gold antifade reagent with DAPI (Molecular Probes, Eugene, Oreg.) and cured overnight at room temperature protected from light. Merged images of the nuclear staining (DAPI) and fluorescent signals were collected using fluorescence microscopy (Zeiss, Thornwood, N.Y.)

[4] = biological target: T1, ανβ3; assay: Confocal microscopy cell binding assay on HEK293-ανβ3 cells; type: cell-based
Method: Cell binding assays using HEK293 cells stably expressing human ανβ3 were performed.
HEK293 cells stably transfected with ανβ3 (HEK293-ανβ3 cells) were plated onto poly-L-lysine coated Lab-Tek II chambered coverglass (Nuns, Rochester, N.Y.) the day before the assay. Cells were first incubated with DAPI (10 μg/ml) for 3 hours, followed by CellMask (Invitrogen, Carlsbad, Calif.) staining for 5 minutes. Cells were then washed 2× with PBS and incubated with E-6 (200 nM in PBS containing 5% serum) at 4° C. or 37° C. for 30 minutes. For the competition study, cells were incubated with parent compound (200 μM) for 1 hour before E-6 incubation. Confocal microscopy was performed on a Leica SP5 confocal system (Leica, Wetzlar, Germany).

[5] = biological target: T1, ανβ3; assay: Equilibrium binding and dissociation measurements by flow cytometry on HEK293-ανβ3 cells
Method: The amount of probe bound to integrins on HEK293-ανβ3 cells was determined by flow cytometry (FACSCalibur, BD Biosciences, CA). Data was analyzed using FlowJo software and Kd values were calculated using SigmaPLot 10 software. For koff determination, HEK293-ανβ3 cells (1×10^6) were incubated with 100 nM of E-6 at 4° C. for 30 minutes and labeled cells were than transferred into PBS containing 10 mM of parent compound. The amount of probe bound to the integrins on HEK293-ανβ3 cells was determined by flow cytometry (FACSCalibur, BD Biosciences, CA) before mixing with unlabeled compound, and 1, 1.5, 2.5, 3.5, 4.5, 5.5, and 24 hours after mixing. Data was analyzed using FlowJo software and koff and t1/2 values calculated using SigmaPLot 10 software.

[6] = Plasma pharmacokinetics in mice; type: in vivo, BALB/c mice; conditions: 2 nmoles i.v. bolus, two compartmental model
From the text: Twenty-four female retired breeder BALB/c mice (Charles River Laboratories, Wilmington, Mass.) received a bolus intravenous (i.v.) injection of compound E-6 (2 nmoles in PBS). Terminal blood samples were collected by cardiac puncture from each mouse (following carbon dioxide asphyxiation). Three mice were sampled for each time point. Plasma was collected by centrifugation, diluted 1:2 in DMSO and fluorescence read using a fluorescence plate reader (Molecular Devices, Sunnyvale, Calif.). Data was normalized to a standard curve (FIG. 5A) prepared with known concentrations of E-6.

[7] = tested on: HUVEC (Human umbilical vein endothelial cells); assay: Cell binding assay by fluorescence microscopy, HUVEC; type: cell-based
Method: as §2

[8] = tested on: 4T-1 tumors; assay: In vivo imaging of 4T-1 tumors; parameters: species or system NU/NU mice; conditions: 4 nmoles i.v., 24 hours post-injection
Method: In this experiment, NU/NU mice 6-8 weeks old (Charles River Laboratory, Wilmington, Mass.) were injected subcutaneously (s.c.) with 2×10^6 4T-1 cells bilaterally in each mammary fat pad. When tumors reached an approximate size of 3×3 mm (around 7 days after cell injection), mice were injected intravenously (i.v.) with 4 nmoles of each integrin agent (5 mice/probe+2 mice/no probe as control) in 100 μL volume via tail vein. Imaging was conducted 24 hours post-injection using a Fluorescence Molecular Tomography system (VisEn Medical, Bedford, Mass.).

[9] = tested on: A673 tumors; assay: In vivo FMT imaging and quantification of signal in A673 tumor-bearing mice; parameters: species or system NU/NU mice
Method: Female NU/NU mice 6-8 weeks old (Charles River Laboratory, Wilmington, Mass.) were injected subcutaneously (s.c.) with A673 cells (5×10^6) in the first mammary fat pads. Once tumors reached the desired volume (measured with calipers using the formula volume mm^3=(length×width^2)/2), mice were injected i.v. with E-6 ([…]) in the absence or presence of excess, competing parent compound (100 nmoles). Control mice received free dye. For in vivo imaging, mice were anesthetized by gas anesthesia (isoflurane/oxygen mixture), placed in the VisEn's FMT2500 system imaging chamber one at a time, and imaged.
The fluorescent signal was quantified by drawing a three-dimensional ROI encompassing each tumor.

[10] = biological target: T2, ανβ5 (Homo sapiens, UniProt P06756+P18084); assay: Inhibition of cell attachment to vitronectin, HEK293 cells transfected with ανβ5; type: cell-based; conditions: for IC50: HEK293 cells stably transfected with ανβ5, read-out: IC50 (nM), inhibition of cell attachment to vitronectin, αvβ5
T2 construct: expressed in transfected cells; host or cells: HEK293
Method: as §1

[11] = biological target: T3, α5β1 (Homo sapiens, UniProt P05556+P08648); assay: Inhibition of cell attachment to vitronectin, HEK293 cells transfected with α5β1; type: cell-based; conditions: for IC50: HEK293 cells stably transfected with α5β1
T3 construct: expressed in transfected cells; host or cells: HEK293
Method: In this experiment, human embryonic kidney (HEK293) cells stably transfected with ανβ3 (HEK293-ανβ3 cells) were released with trypsin-EDTA and washed four times with serum-free MEM. Cells (25,000 cells/well) were added to microtiter wells coated with vitronectin and allowed to attach for 2 hours at 37° C. in a humidified incubator in the absence or presence of increasing concentrations of compound E-6 or unlabelled parent compound (as an inhibitor of E-6). Non-attached cells were gently washed away. Similar experiments were carried out with HEK293 cells stably transfected with ανβ5, α11bβ3, or α5β1. The attached cells were quantified by colorimetric detection of hexosaminidase enzymatic activity in a Vmax plate reader (Molecular Devices, Menlo Park, Calif.). The number of attached cells was quantified using a standard curve for each cell line assayed and expressed as a mean value of triplicate samples.

[12] = Biodistribution in A673 tumor-bearing mice; type: in vivo, NU/NU mice; conditions: 2 nmoles i.v., 24 hr
Method: For the biodistribution studies, female NU/NU mice 6-8 weeks old (Charles River Laboratory, Wilmington, Mass.) were injected subcutaneously (s.c.) with A673 cells (5×10^6) in the first mammary fat pads. Once tumors reached the desired volume (measured with calipers using the formula volume mm^3=(length×width^2)/2), mice were injected i.v. with compound E-6 (2 nmoles). Mice were sacrificed by carbon dioxide asphyxiation 24 hr later and certain tissues removed, rinsed with saline, blotted dry, and the imaged on VisEn's FMT2500 using the reflectance mode. Regions of interest (ROIs) were drawn around each organ using the FMT Software and the mean fluorescence (reported as counts/energy) determined for each organ and normalized to the mean fluorescence in tumors taken to be 100%.

[13] = biological target: T4, αIIbβ3 (Homo sapiens, UniProt P05106+P08514); assay: Inhibition of cell attachment to vitronectin, HEK293 cells transfected with αIIbβ3; type: cell-based; conditions: for IC50: HEK293 cells stably transfected with αIIbβ3
T4 construct: expressed in transfected cells; host or cells: HEK293
Method: as §1

[14] = agent 20 nM, 30 minutes at 37° C.
[15] = pre-incubation 5 minutes with parent compound 200 nM

Molecule: Avastin: Avastin (bevacizumab, Genentech, CA), anti-angiogenic treatment [reference compound]
- effect of treatment on signal produced by compound E-6 in tumors ([1]; Avastin 2 mg/kg i.p. 2× week, agents injected after 7 days): decreased

Molecule: Cc1ncc([C@@H](CCCCCCc2nc3c(cc2CNC(=O)CCCN(C)S(=O)(=O)c2cccc4c5c(ccc24)N(CCCS(=O)(=O)O)/C(=C/C=C/C=C/C2=[N+](CCS(=O)(=O)[O-])c4ccc6c(S(=O)(=O)O)cc(S(=O)(=O)O)cc6c4C2(C)C)C5(C)C)CCCN3)CC(=O)O)cn1 [Compound E-6]
- IC50 [2]: 4.1 ± 0.3 nM
- loss of affinity to ανβ3 compared to the parent compound ([2]; ratio of Table 4 IC50 values): 5 fold
- fluorescent signal of labeled A673 cells [3, 14]: Significant fluorescent signal
- internalization (receptor recycling, endocytosis) ([4]; 37° C. versus 4° C.): internalization at 37° C., but not at 4 °C
- binding to HEK293-ανβ3 cells (confocal microscopy) ([4]; E-6 200 nM, 30 minutes, 4° C. or 37° C.): binds to the receptors on the surface of the cells
- koff ([5]; 100 nM E-6, 4° C., HEK293-ανβ3 cells, chase with parent compound, read-out: dissociation rate constant koff): 0.000108 s⁻¹
- Kd ([5]; HEK293-ανβ3 cells, 4° C., 30 minutes, single binding site model, read-out: apparent equilibrium binding constant (Kd)): 4.2 ± 0.6 nM
- binding isotherms in the absence or presence of Mn^2+ ([5]; in words): practically identical
- plasma t(1)1/2 (free E-6 clearing from circulation) [6]: 6 min
- plasma t(2)1/2 (clearance of bound E-6) [6]: 210 min
- fluorescent signal of labeled HUVEC cells [7, 14]: Significant fluorescent signal
- imaging of tumors in vivo [8]: imaged effectively
- fluorescence in tumors (FMT imaging) ([9]; A673 tumor-bearing mice, agent i.v., in words): readily detected
- IC50 [10]: 33 nM
- loss of affinity to ανβ5 compared to the parent compound ([10]; ratio of Table 4 IC50 values): 25 fold
- IC50 [11]: > 2000 nM
- specific binding to α5β1 ([11]; in words): no specific binding
- signal produced in tumors following Avastin treatment ([1]; A673 tumor-bearing mice, 2 nmoles agent, imaging 24 hours after): decreased by a greater amount than the signal produced by ProSense
- tissue distribution of fluorescence [12]: highest concentration found in tumors, followed by the liver, small intestine and skin
- IC50 [13]: 39 nM
- potency in binding to α11bβ3 compared to the parent compound ([13]; in words): retains higher potency

Molecule: CCN1/C(=C/C=C(/C=C/C2N(CC)c3ccc4c(S(=O)(=O)O)cc(S(=O)(=O)O)cc4c3C2(C)C)c2ccc(C(=O)NCCCCCC(=O)NCc3cc4c(nc3CCCCCC[C@@H](CC(=O)O)c3cnc(C)nc3)NCCC4)cn2)C(C)(C)c2c1ccc1c(S(=O)(=O)O)cc(S(=O)(=O)O)cc21 (some centres unmarked) [Compound E-7]
- imaging of tumors in vivo [8]: imaged effectively

Molecule: Nc1ncnc2c1ncn2[C@@H]1O[C@H](OCP(=O)(O)O)C=C1F [Parent Compound, reference compound]
- IC50 [2]: 0.82 ± 0.2 nM
- E-6 fluorescence intensity from A673 cells in the presence of a blocking dose [3, 15]: reduced
- effect on binding of E-6 to HEK293-ανβ3 cells (competition) ([4]; parent compound 200 μM for 1 hour before E-6 incubation): prevented
- E-6 fluorescence intensity from HUVEC cells in the presence of a blocking dose [7, 15]: reduced
- effect on total amount of E-6 signal in tumors (competition) ([9]; excess parent compound 100 nmoles, in words): effectively reduces
- decrease of total E-6 fluorescence in tumors ([9]; parent compound 100 nmoles versus E-6 alone, p=0.011): 67%
- IC50 [10]: 1.3 ± 0.2 nM
- IC50 [11]: > 10000 nM
- IC50 [13]: > 10000 nM
